Earlier results, collected in PMC8198792, “Prediction of Anticancer Peptides with High Efficacy and Low Toxicity by Hybrid Model Based on 3D Structure of Peptides” (International Journal of Molecular Sciences, 2021).
Where two headings read alike, the source gives them in different places.

Tested on: erythrocytes
Conditions: cited from earlier work
From the text: Supplement ijms-22-05630-s001.zip/Hemloytic Peptides(seguence).xlsx, sheet "HD1" | column: Activity || Supplement ijms-22-05630-s001.zip/Hemloytic Peptides(seguence).xlsx, sheet "HD2" | column: Activity || Supplement ijms-22-05630-s001.zip/Hemloytic Peptides(seguence).xlsx, sheet "HD3" | column: Activity

[1] = Hemolytic peptides dataset HD2, label 1 = hemolytic, 0 = non-hemolytic, ref Hemolytik/SATPdb
[2] = hemolytic peptides dataset HD3, 1 = hemolytic (positive set), 0 = non-hemolytic (negative set), labels taken from databases, ref Hemolytik/SATPdb

Row | Substance | Activity | Activity (dataset HD1, hemolytic 1 / non-hemolytic 0) | also measured
1 | KKFLHSAKKWLKAFVKLKKNW [satpdb15438] | 1 | 1 | 
2 | KWKLFKKIPKFLHLAK [satpdb17849] |  |  | Activity [1]: 0; Activity [2]: 0
3 | VIPFVASVAAEMMHHVYCAASKRC [satpdb16460] | 1 | 1 | 
4 | QLQGKQVSGEVVQKVLQELIQSVAKP [satpdb28356] | 0 | 0 | 
5 | QTRRLTYKpRTVTYTRGR [satpdb13569] | 1 |  | 
6 | GMWSKIKNAGKAAKAAAKAAGKAALGAVSEAM [satpdb14564] | 0 | 0 | 
7 | GFMDTAKNVAKNVAVTLLDNLKCKITKAC [satpdb14159] | 1 | 1 | 
8 | RRLMAAKAESRK [satpdb23556] | 0 | 0 | 
9 | KKKKKKKKKKGIGKFLHSAKKFGKAFVGEIMNS [satpdb13667] | 0 | 0 | 
10 | VRRFPAAAPFLRR [satpdb24534] | 0 | 0 | 
11 | ALLHHGLNCAKGVLAALLHHGLNCAKGVLA [satpdb21285] | 0 | 0 | 
12 | GWKKWLRKGAKHLGQAAIK [satpdb12620] | 1 |  | 
13 | KKKKKKAAFALWLAFAA [compound 1148] | 1 |  | 
14 | RGLRRLGRKIAHGVKKYGPTVKRIKRKA [satpdb15155] | 0 |  | 
15 | KWKLKPLLKKLLKKL [satpdb10408] | 0 |  | 
16 | kWkSFLkTFkSLKkTVLHTLLkAISS [satpdb10734] |  |  | Activity [1]: 1; Activity [2]: 1
17 | FKTWKRPPFQTSCSGIIKE [satpdb21275] | 0 | 0 | 
18 | KRLFRRWQWRMKKY [satpdb17153] | 0 | 0 | 
19 | PKLLKTFLKWIG [satpdb11234] | 1 | 1 | 
20 | SFPFFPPGICKRLKRC [satpdb23345] | 0 | 0 | 
21 | KKLFKKILkYL [satpdb24648] | 0 |  | 

Row | Substance | Activity | Activity (dataset HD1, hemolytic 1 / non-hemolytic 0) | also measured
22 | AKKVFKRLEKSFSKIQNDK [satpdb11458] | 0 | 0 | 
23 | ILGKLLSTAWGLLSNL [satpdb11718] | 1 |  | 
24 | KLLLKLLKLLLKLLLKLLK [compound 3687] | 1 |  | 
25 | QSRVIQGLVAGETAQQICED [satpdb27946] | 0 | 0 | 
26 | GFKLKGKAKISCLPNGQWSNFPPKCIRECAMVSS [satpdb25464] | 0 | 0 | 
27 | PKLLKFLSKWIG [satpdb11566] | 1 | 1 | 
28 | GRRRRSVQWCA [satpdb24172] | 0 | 0 | 
29 | GFLSILKKVLKVMAHMK [satpdb11385] |  |  | Activity [1]: 1; Activity [2]: 1
30 | GWANTLKNVAGGLCKITGAA [satpdb14607] | 1 | 1 | 
31 | KRFKQDGGWSHWSPWSS [satpdb23837] | 0 | 0 | 
32 | KVAKQEKKKKKTGRAKRR [satpdb15637] | 1 | 1 | 
33 | WLKKW [satpdb27168] |  |  | Activity [1]: 0; Activity [2]: 0
34 | FKCRRWQWRWKKLGAKPVPIIYCNRRTGKCQRM [satpdb24174] | 0 | 0 | 
35 | AKKVSKRLEKLFSKIQNDK [satpdb19605] | 0 | 0 | 
36 | HALWMTLLKKVLKAAAKAALNAVLVGANA [satpdb12263] | 1 | 1 | 
37 | KWKSFLRTFKSPVRTVFHTALKPISS [satpdb15241] | 1 | 1 | 
38 | DSHEKRHHGYKRKFHEKHHSHRGY [satpdb14665] | 0 | 0 | 
39 | GWRKWIKKATHVGKHIGKAALDAYI [satpdb10530] | 1 |  | 
40 | LKLFKKILKYL [satpdb12465] | 1 |  | 
41 | GLFDIIKKIAESFKFSEAIKKIIDFLG [satpdb13437] | 1 | 1 | 
42 | KKKKKKAAFAAFAAFAA [satpdb24627] | 0 |  | 

Row | Substance | Activity | Activity (dataset HD1, hemolytic 1 / non-hemolytic 0) | also measured
43 | KWKLFKKIGIGKFLHSAKKF [compound 2023] | 0 |  | 
44 | SFHVFPPWMCKSLKKC [satpdb22093] | 0 | 0 | 
45 | VRRFPFFFPFLRR [satpdb22709] | 0 | 0 | 
46 | KWLRRVWRWWR [satpdb13727] | 1 |  | 
47 | GIGKFLHSAKKFGKAFVGEIMNS [satpdb11151] |  |  | Activity [1]: 1; Activity [2]: 1
48 | KWKLFKKIGPGKFLHSAKKF [satpdb18846] | 0 |  | 
49 | KKAFAAAAAFAAWAAFAKKKK [satpdb16931] | 0 |  | 
50 | GWGSFFKKAAAVGKAVGKAALTAYL [satpdb15739] | 1 | 1 | 
51 | KWKLFKKIPLAKKF [satpdb27289] | 0 |  | 
52 | KWLKKWL [satpdb27612] | 0 |  | 
53 | KKWLKKWLK [satpdb18253] | 0 |  | 
54 | FLPLIGRVLSGIL [satpdb12693] | 1 |  | 
55 | GGLRSLGRKILRAWKKYGPIIVPIIRIG [satpdb22390] | 0 | 0 | 
56 | KAACAAKCLWR [satpdb24099] | 0 |  | 
57 | KWKFKKIPKFLHLAKKF [satpdb23702] |  |  | Activity [1]: 0; Activity [2]: 0
58 | KKKKKKAAFLAWALFAA [compound 1149] | 1 |  | 
59 | KKLKKLLKKWKKLLKKLK [satpdb24868] | 0 | 0 | 
60 | FSPQMLQDIIEAATAIL [satpdb19301] |  |  | Activity [2]: 0; Activity (dataset HD1, hemolytic 1 / non-hemolytic 0) (natural hemolytic peptide dataset HD1, label collected from databases, ref Hemolytik [49], SATPdb [34]): 0
61 | ENAEEDIVLMENLFCSYIVGSADSFWT [satpdb18741] | 0 | 0 | 
